Data from paper PMC7044166 (Scientific Reports, 2020).
Where “and” joins values, the source holds several entries; their conditions need not be identical. Equal entries are not always repeated. Where two headings read alike, the source gives them in different places.

What was measured:
[1] = Pharmacokinetic interaction study of DSV and TAM/TOH after oral single or co-administration to Wistar rats (UPLC-MS/MS of plasma, NCA); format: in vivo; details: for change in PK parameters following co-administration compared with single administration: Group III (DSV 50 mg/kg + TAM 10 mg/kg, oral) vs Group I (DSV) and Group II (TAM), only exception tmax of TOH; for AUC(0-inf) / Tmax / half-life / Cmax: male, Wistar, rat, plasma, po, mean ± SD, n = 5; for half-life: read-out: t½ (converted); for Cmax: rat plasma; for M.R.(%) metabolite ratio: ratio of AUC0-∞ of TOH to that of TAM, rats
Protocol: The rats were acclimatized for seven days before starting the experiment. All rats were kept in a well-ventilated room and under standard laboratory conditions; 12 h day/night cycle, average temperature of 25 ± 2 °C, and average relative humidity of 50 ± 2%.
Three group of randomly distributed rats (n = 5) were used to conduct the study. […] Following drug administration, orbital blood samples (0.3 mL) were collected into a series of 1.5 mL polythene heparinized tubes prior to dosing (0 time) and at different time intervals following the drug administration; 0.25, 0.5, 1, 2, 4, 5, 12, 24, and 48 h. Immediate centrifugation (4,500 rpm) of collected blood samples was performed at 4 °C for 30 min. The resulting plasma samples were then stored at −20 °C until the day of analysis. Plasma samples (50 µL) were separately mixed with 50 µL OND, IS, (50 ng/mL), 150 µL of 2% formic acid, and finally completed to 1-mL volume with acetonitrile. Sample preparation was then carried out exactly as mentioned under the experimental section. […] These concentrations were then plotted versus the corresponding withdrawal time.
Plasma concentration-time data were treated by the non-compartmental analysis (NCA) method using PKSolver Add-In Excel 2010. Different PK parameters were calculated. They included maximum drug plasma concentration (Cmax) and the time required to reach the maximum plasma concentration (tmax). Both Cmax and tmax were derived from plasma concentration-time curve simply by visual inspection of the data. Using the PKSover, the elimination rate constant (Kel), the half-life (t1/2), the area under the plasma concentration-time curve from 0 time to the last sampling time t (AUC0-t), the area under the plasma concentration-time curve from 0 time to ∞ (AUC0-∞), and the apparent oral clearance (CL/F) were calculated. Kel was calculated from the slope of the plasma concentration-time curve during the elimination phase and from which t1/2 was derived, t1/2 = 0.693/Kel. The linear trapezoidal rule was used to calculate AUC0-t. The summation of AUC0-t and the extrapolated area from time t to ∞, calculated from the last measured concentration (Clast), result in total AUC from 0 time to ∞, AUC0-∞, AUC0-∞ = AUC0-t + (Clast/Kel). CL/F was calculated by dividing the dose by AUC0-∞. The relative bioavailability (R.B.) was obtained from the ratio of AUC0-∞ of the treated group to AUC0-∞ of the control group.

[2] = Stability of DSV, TAM and TOH in rat plasma under storage and treatment conditions; format: in vitro ADME; details: six determinations; for recovery at 56 h / recovery at 6 h / recovery / recovery at 30 days: Wistar, rat, rat plasma; for recovery at 56 h: rat plasma (prepared QC samples in the auto-injector), 10 °C, read-out: Auto-sampler stability, mean recovery (%) ± RSD; for recovery at 6 h / recovery / recovery at 30 days: rat plasma (spiked QC samples); for recovery at 6 h: 25 °C, read-out: Short-term stability, mean recovery (%) ± RSD; for recovery / recovery at 30 days: −30 °C; for recovery: 3 cycles, read-out: Freeze-thaw stability, mean recovery (%) ± RSD; for recovery at 30 days: read-out: Long-term stability, mean recovery (%) ± RSD; for recovery at 3 months: analyte solutions, 4 °C, read-out: Refrigerator stability, mean recovery (%) ± RSD
Protocol: This ensures that no detectable degradation was noticed and that all analytes were stable under the studied conditions. The analytes’ solutions were also stable when kept refrigerated at 4 °C for 3 months or at room temperature for up to 6 h.
Samples were subjected to different storage conditions. Auto-sampler stability was assessed by leaving prepared samples in the auto-injector (10 °C, 56 h) before the injection. Short-term (bench top) stability was evaluated by analyzing samples after being stored at room temperature (25 °C, 6 h). On the other hand, long-term stability was assessed by analyzing samples which had been frozen before analysis (−30 °C, 30 days). Stability of samples was also assessed following three freeze–thaw cycles (frozen at −30 °C, thawed at 25 °C).

[3] = parameters: method as in earlier work; details: cited from earlier work
[4] = test system: estrogen-dependent cell proliferation; details: relative to TAM, cited from earlier work
[5] = oral co-administration of DSV 50 mg/kg and TAM 10 mg/kg (TOH as metabolite of TAM)
[6] = single oral administration, DSV 50 mg/kg or TAM 10 mg/kg (TOH as metabolite of TAM)
[7] = high concentration level (800, 400, 400 ng/mL for DSV, TAM, TOH)

Row | change in PK parameters following co-administration compared with single administration [1] | AUC(0-inf) [1, 5] [ng·h/mL] | Tmax [1, 5] [h] | half-life [1, 5] [h] | Cmax [1, 5] [ng/mL] | AUC(0-inf) [1, 6] [ng·h/mL] | Tmax [1, 6] [h] | half-life [1, 6] [h] | Cmax [1, 6] [ng/mL] | recovery at 56 h [2, 7] [%] | recovery at 56 h ([2]; low concentration level) [%] | recovery at 6 h [2, 7] [%] | recovery at 6 h ([2]; low concentration level) [%] | recovery ([2]; low concentration level) [%] | recovery at 30 days [2, 7] [%] | recovery at 30 days ([2]; low concentration level) [%] | recovery at 3 months [2, 7] [%] | recovery at 3 months ([2]; low concentration level) [%] | SMILES | also measured
1 | no significant changes | 4660 ± 687 | 4.98 ± 0.61 | 19.7 ± 5.41 | 159 ± 49 | 4270 ± 754 | 4.95 ± 1.07 | 17.9 ± 5.93 | 144 ± 26.5 | 98.5 | 95.5 | 95 | 96.3 | 98.5 | 98.8 | 96.8 | 97.6 | 96.2 | COc1c(-c2ccc3cc(NS(C)(=O)=O)ccc3c2)cc(-n2ccc(=O)[nH]c2=O)cc1C(C)(C)C [DSV, Dasabuvir] | pKa (pK1) [3]: 8.2; pKa (pK2) [3]: 9.2
2 |  | 3510 ± 464 | 3.03 ± 0.66 | 17.7 ± 3.42 | 288 ± 81 | 3880 ± 407 | 2.03 ± 0.95 | 15.8 ± 5.18 | 307 ± 109 | 93.5 | 98.2 | 96.8 | 98.2 | 96.1 | 97.3 | 99.7 | 96.6 | 98.9 | CC/C(=C(\c1ccccc1)c1ccc(OCCN(C)C)cc1)c1ccccc1 [TAM, Tamoxifen] | 
3 | no significant changes | 4550 ± 913 | 5.03 ± 0.66 | 19.7 ± 1.41 | 164 ± 54.5 | 4730 ± 774 | 2.03 ± 0.95 | 28.8 ± 1.98 | 172 ± 54 | 95.2 | 99.7 | 98.9 | 96.9 | 97.5 | 95.8 | 99 | 97 | 98 | CC/C(=C(\c1ccc(O)cc1)c1ccc(OCCN(C)C)cc1)c1ccccc1 [TOH, 4-hydroxy tamoxifen] | M.R.(%) metabolite ratio ([1]; oral co-administration of DSV 50 mg/kg and TAM 10 mg/kg): 129.65 ± 10.88%; M.R.(%) metabolite ratio ([1]; single oral TAM 10 mg/kg): 121.86 ± 11%; pka [3]: 8.66 and 9.45; reported estrogenic properties, times more potent than TAM ([4]; at least, reported): 30–100 times; times more potent than TAM in inhibiting estrogen-dependent cell proliferation [4]: 30 to 100 times
